# Results published in publication PMC9266914, “Broad Spectrum Functional Activity of Structurally Related Monoanionic Au(III) Bis(Dithiolene) Complexes” (International Journal of Molecular Sciences, 2022).
# Values joined by “and” are separate entries in the source; they are usually repeats but may differ in a detail not shown here. Equal entries are not always repeated.
# What was measured:
# [1] = test system: P. falciparum NF54 blood stage; assay: In vitro activity against the blood stage of P. falciparum NF54 (SYBR green flow cytometry); type: cell-based, Plasmodium falciparum; details: 48 h, read-out: IC50 PfNF54
# Protocol: Ring-stage synchronized cultures of PfNF54 at 2.5% hematocrit and at approximately 1% parasitemia were incubated with gold complexes or DMSO (vehicle control) in 96 well-plates, for 48 h, at 37 °C in a 5% CO2 and 5% O2 atmosphere. Stock solutions of Chloroquine (positive control), [P][AuSEt(=S)] and [P][AuSEt(=Se)] were prepared in DMSO. Working solutions were prepared from the stock solutions in complete malaria culture medium (CMCM), which consists of RPMI 1640 supplemented with 25 mM HEPES, 2.4 mM L-glutamine, 50 μg/mL gentamicin, 0.5% w/v Albumax, 11 mM glucose, 1.47 mM hypoxanthine and 37.3 mM NaHCO3. For each measurement, 5 µL of the culture (approximately 800,000 cells) was stained with the DNA-specific dye SYBR green I at 1×. After 20 min of incubation, in the dark, the stained sample was analyzed by flow cytometry. For each flow cytometric measurement, approximately 100,000 events were analyzed. All samples were analyzed in triplicate and two independent experiments were performed.
# [2] = test system: Huh7 cells; assay: Cell viability (cell confluency, Alamar Blue) of P. berghei-infected Huh7 cells; type: cell-based; details: 5 µM, in words
# Protocol: The in vitro liver stage activity of gold complexes was assessed against P. berghei-infected Huh7 cells, as previously described. Briefly, Huh7 cells were cultured in RPMI-1640 medium supplemented with 10% (v/v) fetal bovine serum, 1% (v/v) penicillin/streptomycin, 1% (v/v) glutamine, 1% (v/v) non-essential amino acids and 10 mM HEPES. On the day prior to infection, Huh7 cells were seeded in 96-well plates at a density of approximately 3.1 × 10^4 cell/cm^2 and incubated at 37 °C, 5% CO2. Stock solutions of the complexes were initially prepared in DMSO and serially diluted in infection medium, i.e., culture medium supplemented with gentamicin (50 µg/mL) and fungizone (0.8 µg/mL), to obtain the test concentrations. As a control, DMSO was diluted in infection medium to a percentage that equals that of the highest compound concentrations tested. These dilutions were added to the cells in triplicates and incubated for 1 h at 37 °C, 5% CO2, after which 1 × 10^4 luciferase-expressing P. berghei sporozoites were added to each well. Plates were centrifuged at 1800× g for 5 min at room temperature and incubated for the duration of the assay. At 46 h post-infection (hpi), the impact of each compound concentration on cell viability was assessed by the Alamar Blue (Invitrogen, Buckinghamshire, UK) assay, according to the manufacturer’s recommendations. Infection was next assessed by bioluminescence, employing the Firefly Luciferase Assay Kit 2.0 (Biotium, Fremont, CA, USA), according to the manufacturer’s recommendations. For IC50 determination, nonlinear regression analysis was employed to fit the normalized results of the dose–response curves, using GraphPad Prism 8 (GraphPad software, La Jolla, CA, USA).
# [3] = test system: E. coli ATCC25922; assay: MIC determination, E. coli; type: cell-based, Escherichia coli; details: MH broth, 22 h, 37 °C
# [4] = test system: A2780 ovarian cancer cells; parameters: method as in PMID 32391537; details: 48 h incubation, MTT; starred values; read-out: IC50 A2780, 48 h; cited from earlier work
SMILES,IC50 [1] [µM],toxicity seen as lower cell confluency [2],MIC E. coli ATCC25922 [3],IC50 [4] [µM]
CCn1c2c(sc1=[Se])[S][Au-]1([S]c3sc(=[Se])n(CC)c3[S]1)[S]2.c1ccc([P+](c2ccccc2)(c2ccccc2)c2ccccc2)cc1 [[P][AuSEt(=Se)]],1 ± 0.391,some degree of toxicity,>125 µg/mL,
CCn1c2c(sc1=S)[S][Au-]1([S]c3sc(=S)n(CC)c3[S]1)[S]2.c1ccc([P+](c2ccccc2)(c2ccccc2)c2ccccc2)cc1 [[P][AuSEt(=S)]],1.06 ± 0.393,some degree of toxicity,>125 µg/mL,
CCCCn1c2c(sc1=S)[S][Au-]1([S]c3sc(=S)n(CCCC)c3[S]1)[S]2.c1ccc([P+](c2ccccc2)(c2ccccc2)c2ccccc2)cc1 [[P][AuSBu(=S)]],,,>125 µg/mL,
"CC(=O)OC[C@H]1O[C@@H]([S-])[C@H](OC(C)=O)[C@@H](OC(C)=O)[C@@H]1OC(C)=O.CCP(CC)CC.[Au+] [Auranofin, reference compound]",,,35.5 µg/mL and 35.5 ± 0.6 µg/mL,0.43 ± 0.27
CC(C)n1c2c(sc1=S)[Se][Au-]1([Se]c3sc(=S)n(C(C)C)c3[Se]1)[Se]2.c1ccc([P+](c2ccccc2)(c2ccccc2)c2ccccc2)cc1 [[P][AuSeiPr(=S)]],,,>62.5 µg/mL,
